Assay results from ChEMBL document CHEMBL1201862, “PubChem BioAssay data set” (2004).
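Tested at 5 concentrations; 48 h exposure; 96-well plates; endpoints linearly interpolated, else capped at highest concentration. GI50: concentration for 50% inhibition of growth.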 Active and inactive are the calls of the source. No stated cut-off is given here; in the data, active = GI50 up to about 1.1 µM and inactive = higher.

Assays:
Test in all cases: DTP human tumour cell line panel, 48 h
NCI-H522 = system: NCI-H522
HT-29 = system: HT-29
DU-145 = system: DU-145
CCRF-CEM = system: CCRF-CEM
NCI/ADR-RES = system: NCI/ADR-RES
SNB-75 = system: SNB-75
RXF 393 = system: RXF 393
EKVX = system: EKVX
KM12 = system: KM12
CAKI-1 = system: CAKI-1
HOP-62 = system: HOP-62
SNB-19 = system: SNB-19
UACC-257 = system: UACC-257
COLO 205 = system: COLO 205
HCC 2998 = system: HCC 2998
RPMI-8226 = system: RPMI-8226
MDA-MB-435 = system: MDA-MB-435
SF-539 = system: SF-539
BT-549 = system: BT-549

Measured: GI50

C=C(C)[C@@]1(O)CCCC[C@@H]1CC(Sc1ccccc1)Sc1ccccc1
inactive: NCI-H522 11.7 µM | HT-29 18.2 µM | DU-145 15.7 µM | CCRF-CEM 23.4 µM | NCI/ADR-RES 16.3 µM | SNB-75 16 µM | RXF 393 13.4 µM | EKVX 13.4 µM | KM12 14.2 µM | CAKI-1 14.9 µM | HOP-62 16.5 µM | SNB-19 18.5 µM | UACC-257 20.2 µM | COLO 205 16.4 µM | HCC 2998 16.5 µM | RPMI-8226 11.3 µM | MDA-MB-435 16.2 µM

CC1C(c2ccc3c(c2)OCO3)c2cc3c(cc2OC1N1CCCC1)OCO3 (stereo not given)
inactive: NCI-H522 18 µM | HT-29 31 µM | DU-145 34.1 µM | CCRF-CEM 26.4 µM | NCI/ADR-RES 29.2 µM | SNB-75 15.1 µM | EKVX 37.9 µM | KM12 37.7 µM | CAKI-1 11.6 µM | HOP-62 49.5 µM | SNB-19 20.9 µM | UACC-257 34.5 µM | COLO 205 31.6 µM | HCC 2998 17.8 µM | RPMI-8226 29.2 µM | MDA-MB-435 5.52 µM | SF-539 16.1 µM

CCOC(=O)c1[nH]c(-c2[nH]c(-c3[nH]c(-c4[nH]c(C(=O)OCC)c(C)c4C(=O)OCC)c(C(=O)OCC)c3C)c(C)c2C(=O)OCC)c(C(=O)OCC)c1C
inactive: NCI-H522 > 100 µM | HT-29 > 100 µM | DU-145 > 100 µM | CCRF-CEM > 100 µM | NCI/ADR-RES > 100 µM | RXF 393 > 100 µM | EKVX > 100 µM | KM12 > 100 µM | CAKI-1 > 100 µM | HOP-62 > 100 µM | SNB-19 > 100 µM | UACC-257 > 100 µM | COLO 205 > 100 µM | HCC 2998 > 100 µM | RPMI-8226 > 100 µM | MDA-MB-435 > 100 µM | SF-539 > 100 µM

COC(=O)C1C2CC3C1C3C2C(=O)OC (stereo not given)
inactive: NCI-H522 > 100 µM | HT-29 > 100 µM | DU-145 > 100 µM | CCRF-CEM > 100 µM | NCI/ADR-RES > 100 µM | SNB-75 > 100 µM | RXF 393 > 100 µM | EKVX > 100 µM | KM12 > 100 µM | CAKI-1 > 100 µM | HOP-62 > 100 µM | SNB-19 > 100 µM | UACC-257 > 100 µM | COLO 205 > 100 µM | HCC 2998 > 100 µM | MDA-MB-435 > 100 µM | SF-539 > 100 µM

O=C(/C=C\c1ccccc1)N1CCc2ccccc2C1
inactive: HT-29 51.4 µM | DU-145 > 100 µM | CCRF-CEM 29 µM | NCI/ADR-RES 44 µM | SNB-75 52.7 µM | RXF 393 44.4 µM | EKVX 32.4 µM | KM12 36.5 µM | CAKI-1 67.1 µM | HOP-62 > 100 µM | SNB-19 67.8 µM | UACC-257 38.9 µM | COLO 205 20.6 µM | HCC 2998 > 100 µM | RPMI-8226 23.5 µM | MDA-MB-435 27.2 µM | SF-539 49.8 µM

Cc1cn(C2CC(N/C(=N/C#N)NCC3OC(n4cnc5c(N)ncnc54)CC3O)C(CO)O2)c(=O)[nH]c1=O (stereo not given)
inactive: NCI-H522 > 100 µM | HT-29 > 100 µM | DU-145 > 100 µM | CCRF-CEM > 100 µM | NCI/ADR-RES > 100 µM | SNB-75 > 100 µM | RXF 393 > 100 µM | EKVX > 100 µM | KM12 > 100 µM | CAKI-1 > 100 µM | HOP-62 > 100 µM | SNB-19 > 100 µM | UACC-257 > 100 µM | COLO 205 > 100 µM | HCC 2998 > 100 µM | MDA-MB-435 > 100 µM | SF-539 > 100 µM

COc1ccc2nc3n(c2c1)C(=O)c1ccccc1-3
inactive: NCI-H522 > 100 µM | HT-29 > 100 µM | DU-145 > 100 µM | CCRF-CEM > 100 µM | NCI/ADR-RES > 100 µM | SNB-75 > 100 µM | BT-549 > 10 µM | RXF 393 > 100 µM | EKVX > 100 µM | KM12 > 100 µM | CAKI-1 > 100 µM | HOP-62 > 100 µM | SNB-19 > 100 µM | UACC-257 > 100 µM | COLO 205 > 100 µM | HCC 2998 > 100 µM | RPMI-8226 > 100 µM | SF-539 > 100 µM

COc1ccc(C(=O)/C=C/c2ccc(OCCCOc3ccc(/C=C/C(=O)c4ccc(OC)c(OC)c4)cc3)cc2)cc1OC
inactive: HT-29 > 100 µM | DU-145 > 100 µM | CCRF-CEM > 100 µM | NCI/ADR-RES > 100 µM | SNB-75 > 100 µM | RXF 393 > 100 µM | EKVX > 100 µM | KM12 > 100 µM | CAKI-1 > 100 µM | HOP-62 > 100 µM | SNB-19 > 100 µM | UACC-257 > 100 µM | COLO 205 > 100 µM | HCC 2998 > 100 µM | RPMI-8226 > 100 µM | MDA-MB-435 > 100 µM | SF-539 > 100 µM

Cc1nc(SCC(N)=O)c2sc(=S)n(-c3ccccc3)c2n1
inactive: NCI-H522 > 10 µM | HT-29 > 10 µM | DU-145 > 10 µM | CCRF-CEM > 10 µM | NCI/ADR-RES > 10 µM | SNB-75 > 10 µM | RXF 393 > 10 µM | EKVX > 10 µM | KM12 > 10 µM | CAKI-1 > 10 µM | HOP-62 > 10 µM | SNB-19 > 10 µM | UACC-257 > 10 µM | COLO 205 > 10 µM | HCC 2998 > 10 µM | RPMI-8226 > 10 µM | MDA-MB-435 > 10 µM | SF-539 > 10 µM

O=C(CSc1nc2ccc(I)cc2c(=O)n1Cc1ccccc1)NN1C(=O)CCC1=O
inactive: NCI-H522 20.4 µM | HT-29 48.6 µM | DU-145 > 100 µM | CCRF-CEM 34.5 µM | NCI/ADR-RES 37.2 µM | SNB-75 36.3 µM | RXF 393 25.5 µM | EKVX 34.1 µM | KM12 37.2 µM | CAKI-1 1.65 µM | HOP-62 54.5 µM | SNB-19 85.3 µM | UACC-257 45 µM | COLO 205 34 µM | HCC 2998 77.4 µM | RPMI-8226 37.7 µM | MDA-MB-435 64.1 µM | SF-539 61.4 µM

N/C(=N\O)N/N=C/c1ccc2c(c1)OCO2
inactive: NCI-H522 38.5 µM | HT-29 36.1 µM | DU-145 7.16 µM | CCRF-CEM 19.4 µM | NCI/ADR-RES 6.75 µM | RXF 393 29 µM | EKVX 8.85 µM | KM12 7.55 µM | CAKI-1 30.3 µM | HOP-62 26.6 µM | SNB-19 62.7 µM | UACC-257 39.5 µM | COLO 205 4.74 µM | HCC 2998 35.6 µM | RPMI-8226 21.2 µM | MDA-MB-435 31.4 µM | SF-539 27.7 µM
